Source: the supplement of paper PMC6045584
± gives the standard deviation of the averaged measurements.

Key:
[1] = compound: Oc1nc(-c2ccc(C(F)(F)F)cc2)nc2c1CSCC2 [XAV-939]; assay: surviving fraction relative to DMSO-only wells; higher = less growth inhibition; settings: exposure time: 5 days
Outline: (§1)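 In 384-well plates, 250–500 log-phase tumour cells per well were given 24 hours before five days of continuous exposure to inhibitors at 0.5, 1, 5, 10, 50, 100, 500 and 1000 nM. Surviving fraction is luminescence from CellTiter-Glo, normalised to the median of wells containing DMSO alone. Reading took place after 10 minutes at room temperature.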

[2] = compound: Cn1nnc2c(C(N)=O)ncn2c1=O [TEMOZOLOMIDE]; assay: as above; settings: exposure time: 5 days
Outline: as §1

| Test System | surviving fraction ([1]; 0.5 nM) | surviving fraction ([1]; 1 nM) | surviving fraction ([1]; 5 nM) | surviving fraction ([1]; 10 nM) | surviving fraction ([1]; 50 nM) | surviving fraction ([1]; 100 nM) | surviving fraction ([1]; 500 nM) | surviving fraction ([1]; 1000 nM) | surviving fraction ([2]; 0.5 nM) | surviving fraction ([2]; 1 nM) | surviving fraction ([2]; 5 nM) | surviving fraction ([2]; 10 nM) | surviving fraction ([2]; 50 nM) | surviving fraction ([2]; 100 nM) | surviving fraction ([2]; 500 nM) | surviving fraction ([2]; 1000 nM) |
| --- | --- | --- | --- | --- | --- | --- | --- | --- | --- | --- | --- | --- | --- | --- | --- | --- |
| SUM149 BREAST | 1.02 ± 0.094 | 0.987 ± 0.05 | 0.971 ± 0.067 | 0.942 ± 0.034 | 0.854 ± 0.095 | 0.691 ± 0.037 | 0.432 ± 0.0091 | 0.328 ± 0.022 | 1.06 ± 0.11 | 1.1 ± 0.067 | 1.1 ± 0.029 | 1.1 ± 0.12 | 1.01 ± 0.056 | 1.16 ± 0.12 | 1.1 ± 0.096 | 1.03 ± 0.022 |
| SUM149.B1*.S BREAST | 0.968 ± 0.033 | 1.07 ± 0.059 | 1.04 ± 0.047 | 1.06 ± 0.082 | 0.996 ± 0.045 | 1.06 ± 0.033 | 1.01 ± 0.03 | 1 ± 0.026 | 1 ± 0.026 | 1.05 ± 0.023 | 1.08 ± 0.062 | 1.11 ± 0.038 | 1.07 ± 0.067 | 1.13 ± 0.073 | 1.07 ± 0.023 | 1.15 ± 0.085 |
| SUM159 BREAST | 1.17 ± 0.32 | 1.15 ± 0.19 | 1.14 ± 0.21 | 1.16 ± 0.22 | 1.12 ± 0.2 | 1.13 ± 0.18 | 1.09 ± 0.16 | 1.08 ± 0.11 | 1.01 ± 0.057 | 1.06 ± 0.035 | 1.039 ± 0.0092 | 1.07 ± 0.024 | 1.02 ± 0.021 | 1.05 ± 0.021 | 1.04 ± 0.029 | 1.06 ± 0.0095 |
| SYO1 SYNOVIAL | 0.954 ± 0.039 | 0.998 ± 0.062 | 0.984 ± 0.028 | 0.997 ± 0.047 | 0.973 ± 0.059 | 0.879 ± 0.024 | 0.708 ± 0.044 | 0.568 ± 0.0066 | 0.971 ± 0.041 | 1.04 ± 0.064 | 0.965 ± 0.0099 | 1.01 ± 0.048 | 0.986 ± 0.059 | 1.01 ± 0.048 | 0.99733 ± 0.00067 | 1.03 ± 0.016 |
| T47D BREAST | 1.04 ± 0.074 | 1.08 ± 0.045 | 1.07 ± 0.02 | 1.09 ± 0.014 | 1.09 ± 0.044 | 1.13 ± 0.053 | 1.04 ± 0.052 | 1.05 ± 0.042 | 0.982 ± 0.011 | 1.057 ± 0.0064 | 1.04 ± 0.034 | 1.04 ± 0.055 | 1.06 ± 0.053 | 1.1 ± 0.018 | 1.08 ± 0.032 | 1.09 ± 0.025 |
| U2OS BONE | 1.02 ± 0.028 | 1.04 ± 0.012 | 1.07 ± 0.032 | 1.06 ± 0.038 | 1.06 ± 0.014 | 1.04 ± 0.018 | 0.921 ± 0.02 | 0.8627 ± 0.0081 | 0.988 ± 0.017 | 0.988 ± 0.034 | 1.04 ± 0.022 | 1.02 ± 0.045 | 1.06 ± 0.029 | 1.06 ± 0.023 | 1.02 ± 0.028 | 1.01 ± 0.023 |
| VCAP PROSTATE | 0.963 ± 0.12 | 0.958 ± 0.077 | 1.08 ± 0.092 | 0.973 ± 0.089 | 0.957 ± 0.083 | 0.903 ± 0.088 | 0.848 ± 0.13 | 0.84 ± 0.024 | 0.913 ± 0.1 | 1.09 ± 0.089 | 1.04 ± 0.13 | 1.04 ± 0.082 | 0.967 ± 0.051 | 1.1 ± 0.09 | 0.991 ± 0.039 | 1.08 ± 0.093 |
| VP229 BREAST | 1.3 ± 0.093 | 1.34 ± 0.056 | 1.37 ± 0.14 | 1.23 ± 0.045 | 1.3 ± 0.075 | 1.41 ± 0.22 | 1.33 ± 0.26 | 1.3 ± 0.075 | 1.18 ± 0.11 | 1.18 ± 0.15 | 1.07 ± 0.17 | 1.23 ± 0.06 | 1.12 ± 0.073 | 1.26 ± 0.21 | 1.15 ± 0.15 | 1.15 ± 0.16 |
| YAMATO SYNOVIAL | 1.28 ± 0.22 | 1.22 ± 0.057 | 1.26 ± 0.095 | 1.34 ± 0.18 | 1.3 ± 0.049 | 1.24 ± 0.053 | 1 ± 0.095 | 1.09 ± 0.037 | 1.14 ± 0.05 | 1.16 ± 0.055 | 1.27 ± 0.13 | 1.35 ± 0.076 | 1.22 ± 0.083 | 1.4 ± 0.1 | 1.31 ± 0.12 | 1.38 ± 0.095 |
| ZR751 BREAST | 0.873 ± 0.048 | 0.925 ± 0.18 | 0.869 ± 0.092 | 0.987 ± 0.03 | 0.683 ± 0.082 | 0.762 ± 0.15 | 0.69 ± 0.052 | 0.685 ± 0.036 | 0.95 ± 0.12 | 0.953 ± 0.032 | 0.981 ± 0.034 | 0.964 ± 0.09 | 0.987 ± 0.15 | 1.04 ± 0.11 | 0.918 ± 0.11 | 1.05 ± 0.06 |
